Test results reported in publication PMC5909954 (Toxicology, 2018).
pIC50: −log10 of the molar value.

What was measured:
Complex I = assay: immunocapture-based OXPHOS activity assay; format: biochemical, Bos taurus
[1] = target: Complex V (F1FO ATP synthase); assay: immunocapture-based OXPHOS activity assay; format: biochemical, Bos taurus

SMILES | pIC50 (Complex I) | pIC50 [1]
C/C(O)=C(\C#N)C(=O)Nc1ccc(C(F)(F)F)cc1 [A77 1726, 2-Cyano-3-hydroxy-N-[4-(trifluoromethyl)phenyl]-2-butenamide] | 3.64 | 4.20
Cc1oncc1C(=O)Nc1ccc(C(F)(F)F)cc1 [leflunomide] | 3.70 | 4.46
